According to ChEMBL document CHEMBL1201862, “PubChem BioAssay data set” (2004):
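Cultured in 96-well plates, cells were exposed to test compound for 48 hours across five concentrations. Abbreviation: GI50, concentration required for 50% inhibition of growth.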 The source made the active and inactive calls. No stated cut-off is given here; in the data, active = GI50 up to about 1.1 µM and inactive = higher.

Columns and labels:
Assay in all cases: growth of human tumour cells (NCI), 48 h
NCI-H522 = system: NCI-H522
U-251 = system: U-251
MDA-MB-231 = system: MDA-MB-231
786-0 = system: 786-0
NCI-H460 = system: NCI-H460
SK-MEL-2 = system: SK-MEL-2
SF-268 = system: SF-268
SR = system: SR
HOP-92 = system: HOP-92
SF-295 = system: SF-295
OVCAR-3 = system: OVCAR-3
HCT-15 = system: HCT-15
HT-29 = system: HT-29
SNB-19 = system: SNB-19
KM12 = system: KM12
COLO 205 = system: COLO 205
RPMI-8226 = system: RPMI-8226
K562 = system: K562
Hs-578T = system: Hs-578T
SK-MEL-28 = system: SK-MEL-28

| SMILES | GI50 (NCI-H522) | GI50 (U-251) | GI50 (MDA-MB-231) | GI50 (786-0) | GI50 (NCI-H460) | GI50 (SK-MEL-2) | GI50 (SF-268) | GI50 (SR) | GI50 (HOP-92) | GI50 (SF-295) | GI50 (OVCAR-3) | GI50 (HCT-15) | GI50 (HT-29) | GI50 (SNB-19) | GI50 (KM12) | GI50 (COLO 205) | GI50 (RPMI-8226) | GI50 (K562) | GI50 (Hs-578T) | GI50 (SK-MEL-28) |
| --- | --- | --- | --- | --- | --- | --- | --- | --- | --- | --- | --- | --- | --- | --- | --- | --- | --- | --- | --- | --- |
| Cn1c2ccccc2c(=NNc2ccc(S(=O)(=O)N=C(N)N)cc2)c2ccccc21 | 3.82 µM (inactive) | 8.02 µM (inactive) | 11.4 µM (inactive) | 5.98 µM (inactive) | 3.37 µM (inactive) | 13.5 µM (inactive) | 5.75 µM (inactive) | 5.01 µM (inactive) | 12.1 µM (inactive) | 13.3 µM (inactive) | 7.35 µM (inactive) | 10.2 µM | 3.8 µM (inactive) | 10.6 µM (inactive) | 7.98 µM (inactive) | 5.53 µM (inactive) | 7.8 µM (inactive) | 4.39 µM (inactive) | 17.6 µM (inactive) | – |
| CN(C)CCNC(=O)c1cccc2nc3cccc(F)c3nc12 | 1.05 µM (active) | 1.38 µM (inactive) | 1.32 µM (inactive) | 0.653 µM (active) | 0.579 µM (active) | 2.13 µM (inactive) | 2.31 µM (inactive) | 0.57 µM (active) | 1.22 µM (inactive) | 1.52 µM (inactive) | 1.99 µM (inactive) | 1.16 µM | 0.867 µM (active) | 2.21 µM (inactive) | 1.42 µM (inactive) | 0.317 µM (active) | 0.8 µM (active) | 1.29 µM (inactive) | 1.41 µM (inactive) | 3.01 µM (inactive) |
| c1ccc2c(c1)cc1ccc3cccc4ccc2c1c34 | > 100 µM (inactive) | > 100 µM (inactive) | > 100 µM (inactive) | > 100 µM (inactive) | > 100 µM (inactive) | > 100 µM (inactive) | > 100 µM (inactive) | > 100 µM (inactive) | > 100 µM (inactive) | > 100 µM (inactive) | > 100 µM (inactive) | 6.05 µM | > 100 µM (inactive) | 81.1 µM (inactive) | 26.2 µM (inactive) | > 100 µM (inactive) | > 100 µM (inactive) | > 100 µM (inactive) | > 100 µM (inactive) | > 100 µM (inactive) |
| Cn1c([N+](=O)[O-])cnc1CN1CCN(CCO)CC1 | > 100 µM (inactive) | > 100 µM (inactive) | > 100 µM (inactive) | > 100 µM (inactive) | > 100 µM (inactive) | > 100 µM (inactive) | > 100 µM (inactive) | > 100 µM (inactive) | > 100 µM (inactive) | > 100 µM (inactive) | > 100 µM (inactive) | > 100 µM | > 100 µM (inactive) | > 100 µM (inactive) | > 100 µM (inactive) | > 100 µM (inactive) | > 100 µM (inactive) | > 100 µM (inactive) | > 100 µM (inactive) | > 100 µM (inactive) |
| CC(=O)Nc1sc(Br)cc1S(=O)(=O)c1ccc(Cl)cc1 | 19.3 µM (inactive) | 34.8 µM (inactive) | > 100 µM (inactive) | 26.2 µM (inactive) | 33.7 µM (inactive) | 30.1 µM (inactive) | 30.1 µM (inactive) | 14.6 µM (inactive) | 20.1 µM (inactive) | 31.2 µM (inactive) | 20.5 µM (inactive) | > 10 µM | 16.9 µM (inactive) | 46.6 µM (inactive) | 20.3 µM (inactive) | > 10 µM (inactive) | 23.2 µM (inactive) | 21.1 µM (inactive) | 20 µM (inactive) | 57.3 µM (inactive) |
| CCCCc1ccc(Nc2ncc3ncn(COCCO)c3n2)cc1 | 34.1 µM (inactive) | 39.4 µM (inactive) | 18.9 µM (inactive) | 26.6 µM (inactive) | 22.4 µM (inactive) | 25.2 µM (inactive) | 40.9 µM (inactive) | 17.1 µM (inactive) | 25.8 µM (inactive) | 27.3 µM (inactive) | 22.8 µM (inactive) | 34.9 µM | 21.8 µM (inactive) | 44.3 µM (inactive) | 27.3 µM (inactive) | 36.1 µM (inactive) | 16.4 µM (inactive) | 14 µM (inactive) | 20.8 µM (inactive) | – |
| CC1(C)CC(=O)/C(=C/C2CCNC2=S)C(=O)N1 (stereo not drawn) | > 100 µM (inactive) | > 100 µM (inactive) | > 100 µM (inactive) | > 100 µM (inactive) | > 100 µM (inactive) | > 100 µM (inactive) | > 100 µM (inactive) | > 100 µM (inactive) | > 100 µM (inactive) | > 100 µM (inactive) | > 100 µM (inactive) | > 100 µM | > 100 µM (inactive) | > 100 µM (inactive) | > 100 µM (inactive) | > 100 µM (inactive) | > 100 µM (inactive) | > 100 µM (inactive) | > 100 µM (inactive) | > 100 µM (inactive) |
